Assay results as given in patent publication US8426151B2, “Systems and methods for the detection of biomarkers” (Companion Diagnostics Inc., priority 2010, dated 2013).
Where “and” joins values, the source holds several entries; their conditions need not be identical. Identical values can stand only once.

Experiments:
peroxidase = test: Peroxidase assay in saliva (Amplex Red); assay type: biochemical; settings: 500 ppm, 30 minutes, FIGS. 26-29
Experimental: To determine the effect of various GRAS compounds as inhibitors of peroxidase activity, a standard assay using Amplex® Red (Life Technologies), which releases a fluorescent oxidation product.
The test compounds, such as GRAS materials or cocktails of same, were prepared at a concentration of 500 ppm in distilled water. For the assay, 50 μl samples of test compounds were mixed with 20-30 μl of saliva (either “pooled” or “unpooled”) prior to the addition of Amplex® Red. Following the mixture of the test compounds with saliva, 50 μl of Amplex® Red/HRP working solution (See Protocol for Invitrogen Assay #A22188, which is incorporated herein in its entirety), which has a concentration of 100 μM of Amplex® Red, is added to the test compound/saliva mixture. […] Reactions were allowed to run for 30 minutes during these assays.

α-amylase = target: T1, α-amylase (Homo sapiens, UniProt P0DUB6); test: α-Amylase inhibition saliva screening (2-chloro-p-nitrophenol-maltotriose substrate, 405 nm); assay type: biochemical; settings: for absorbance at 405 nm, single readings: 37° C., beside 100% Saliva Control; for Ave: mean of four readings at 405 nm
T1 sequence (P0DUB6 16-511): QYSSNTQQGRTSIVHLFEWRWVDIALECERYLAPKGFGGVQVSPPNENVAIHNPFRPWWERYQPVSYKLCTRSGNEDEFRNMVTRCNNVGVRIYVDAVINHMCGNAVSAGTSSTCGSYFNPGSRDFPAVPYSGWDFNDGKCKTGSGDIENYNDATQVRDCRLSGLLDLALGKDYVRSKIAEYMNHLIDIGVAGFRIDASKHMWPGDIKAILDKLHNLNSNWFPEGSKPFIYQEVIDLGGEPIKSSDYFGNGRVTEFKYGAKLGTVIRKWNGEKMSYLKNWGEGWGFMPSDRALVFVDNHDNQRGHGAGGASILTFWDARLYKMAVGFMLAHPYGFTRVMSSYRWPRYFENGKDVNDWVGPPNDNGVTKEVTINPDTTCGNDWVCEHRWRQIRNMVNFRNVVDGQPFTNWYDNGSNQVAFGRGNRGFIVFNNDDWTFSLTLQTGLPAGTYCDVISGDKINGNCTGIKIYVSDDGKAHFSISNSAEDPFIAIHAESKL
Source text: Enzymatic activity of α-amylase on the substrate yields 2-chloro-p-nitrophenol, which can be measured spectrophotometrically at 405 nm. The amount of α-amylase activity present in the experimental sample is directly proportional to the increase in absorbance at 405 nm.

Compound | peroxidase inhibition (peroxidase) | absorbance at 405 nm, single readings (α-amylase; 0 min) | Ave (α-amylase; 0 min) | absorbance at 405 nm, single readings (α-amylase; 5 min) | Ave (α-amylase; 5 min) | Ave (α-amylase; 15 min) | absorbance at 405 nm, single readings (α-amylase; 0 min, sulfate hydrate) | absorbance at 405 nm, single readings (α-amylase; 5 min, sulfate hydrate) | absorbance at 405 nm, single readings (α-amylase; 15 min, sulfate hydrate)
Cn1c(=O)c2c(ncn2C)n(C)c1=O [CDI #33, Caffeine] | significant peroxidase inhibition capabilities | – | – | – | – | – | – | – | –
COc1ccc(O)c(C(C)(C)C)c1 [CDI-039, 3-tert--butyl-hydroxyanisole] | significant peroxidase inhibition capabilities | – | – | – | – | – | – | – | –
Aluminum potassium sulfate dodecahydrate [CDI-42] | significant peroxidase inhibition capabilities | 0.80 and 0.90 and 0.84 | 0.92 | 1.80 | 1.85 | 2.29 | – | – | –
Aluminum sulfate hydrate [CDI-34] | – | – | 0.40 | – | 0.50 | 0.56 | 0.40 and 0.36 and 0.45 | 0.49 and 0.50 and 0.52 | 0.53 and 0.61 and 0.54 and 0.56
